Assay results published in ChEMBL document CHEMBL4602699, “Identification and Optimization of EphA2-Selective Bicycles for the Delivery of Cytotoxic Payloads” (J Med Chem, 2020).

Assays:
in vitro [1] = conditions: human, plasma
Description: (§1) Unbound fraction in human plasma at 2 uM incubated for 2 hrs by LC/MS/MS analysis

in vitro [2] = conditions: human, plasma; remark: listed apart in the source
Description: Half life in human plasma at 2 uM by LC/MS/MS analysis

in vitro [3] = conditions: mouse, plasma
Description: Half life in mouse plasma at 2 uM by LC/MS/MS analysis

HT-1080 = experiment: animal or person; conditions: Rattus norvegicus, HT-1080, iv, 336 h, read-out: MED
[4] = human, plasma, 2 h, 2 µM
Description: as §1

| SMILES | fraction unbound at 2 h, 2 µM (in vitro [1]) | half-life at 2 µM (in vitro [2]) [h] | half-life at 2 µM (in vitro [3]) [h] | minimal effective dose (HT-1080) [mg/kg] | Fu [4] |
| --- | --- | --- | --- | --- | --- |
| CC(C)C[C@@H]1NC(=O)[C@@H]2CSCCC(=O)N3CN(CN(C3)C(=O)CCSC[C@H](NC(=O)[C@H](CC(=O)O)NC(=O)[C@H](CCCNC(=N)N)NC(=O)[C@H](C)NC(=O)CN(C)C(=O)CN(C)C(=O)CN(C)C(=O)CN(C)CC(=O)N(C)CC(=O)N(C)CC(=O)N(C)CC(=O)N(C)CC(=O)N(C)CC(=O)N(C)C(=O)CCN)C(=O)N3CCC[C@H]3C(=O)N[C@@H](CC(C)C)C(=O)N[C@@H](C(C)C)C(=O)N[C@@H](CC(N)=O)C(=O)N3CCC[C@H]3C(=O)N[C@@H](CC(C)C)C(=O)N2)C(=O)CCSC[C@@H](C(N)=O)NC(=O)C(CCCCNC(=N)N)NC(=O)[C@H](CC2CCc3ccccc32)NC(=O)[C@@H](CC(=O)O)NC(=O)[C@@H]2CCCN2C(=O)[C@H](Cc2c[nH]cn2)NC1=O (some centres undefined) | 0.41 | > 55 | 33 | – | – |
| COc1cc2cc(c1Cl)N(C)C(=O)C[C@@H](OC(=O)[C@@H](C)N(C)C(=O)CCSSCCCC(=O)NCCC(=O)N(C)C(=O)CN(C)C(=O)CN(C)C(=O)CN(C)C(=O)CN(C)C(=O)CN(C)C(=O)CN(C)CC(=O)N(C)CC(=O)N(C)CC(=O)N(C)CC(=O)N[C@@H](C)C(=O)N[C@@H](CCCNC(=N)N)C(=O)N[C@@H](CC(=O)O)C(=O)N[C@H]1CSCCC(=O)N3CN4CN(C3)C(=O)CCSC[C@H](NC(=O)[C@H](CC(C)C)NC(=O)[C@@H]3CCCN3C(=O)[C@H](CC(N)=O)NC(=O)[C@H](C(C)C)NC(=O)[C@H](CC(C)C)NC(=O)[C@@H]3CCCN3C1=O)C(=O)N[C@@H](CC(C)C)C(=O)N[C@@H](Cc1c[nH]cn1)C(=O)N1CCC[C@H]1C(=O)N[C@H](CC(=O)O)C(=O)N[C@@H](CC1CCc3ccccc31)C(=O)NC(CCCCNC(=N)N)C(=O)N[C@H](C(N)=O)CSCCC4=O)[C@@]1(C)O[C@@H]1[C@@H](C)[C@H]1C[C@](O)(NC(=O)O1)[C@@H](OC)/C=C/C=C(\C)C2 (some centres undefined) | 0.44 | – | – | 3 | – |
| CC(=O)N[C@@H](C)C(=O)N[C@@H](CCCNC(=N)N)C(=O)N[C@@H](CC(=O)O)C(=O)N[C@@H](CS)C(=O)N1CCC[C@H]1C(=O)N[C@@H](CC(C)C)C(=O)N[C@H](C(=O)N[C@@H](CC(N)=O)C(=O)N1CCC[C@H]1C(=O)N[C@@H](CC(C)C)C(=O)N[C@@H](CS)C(=O)N[C@@H](CC(C)C)C(=O)N[C@@H](Cc1cnc[nH]1)C(=O)N1CCC[C@H]1C(=O)NCC(=O)N[C@@H](Cc1c[nH]c2ccccc12)C(=O)N[C@H](C(=O)N[C@@H](CS)C(=O)O)[C@@H](C)O)C(C)C | 0.646 | 3.7 | 3.6 | – | – |
| CC(C)[C@H](NC(=O)[C@@H](CC(=O)O)NC(=O)[C@H](Cc1c[nH]cn1)NC(=O)CN(C)C(=O)CN(C)C(=O)CN(C)C(=O)CN(C)CC(=O)N(C)CC(=O)N(C)CC(=O)N(C)CC(=O)N(C)CC(=O)N(C)CC(=O)N(C)C(=O)CCN)C(=O)N1CCC[C@H]1C(=O)N[C@@H]1CSCc2cc3cc(c2)CSC[C@H](C(N)=O)NC(=O)[C@@H](CC(=O)O)NC(=O)[C@@H]2CCCN2C(=O)[C@H](CCCCNC(=N)N)NC(=O)[C@H](CC(N)=O)NC(=O)[C@H](C(C)(C)C)NC(=O)[C@@H]2CCCN2C(=O)[C@H](CSC3)NC(=O)[C@H](Cc2cccc3ccccc23)NC(=O)[C@H](Cc2ccccc2)NC(=O)C(C)(C)NC(=O)CNC(=O)[C@H](Cc2cccc3ccccc23)NC(=O)C(C)(C)NC1=O | – | – | – | – | Bld |
